Assay: Intraperitoneal pharmacokinetics and brain distribution assay
Assay type: in vivo, male Sprague Dawley rats
Settings: single i.p. dose 1 mg/kg
Protocol: Healthy male Sprague Dawley rats (8-12 weeks old) weighing between 200 to 250 g were procured from Tina Labs, Hyderabad, India. Three rats were housed in each cage. Temperature and humidity were maintained at 22±3° C. and 40-70%, respectively and illumination was controlled to give a sequence of 12 hr light and 12 hr dark cycle. Temperature and humidity were recorded by auto-controlled data logger system. All the animals were provided laboratory rodent diet (Vetcare India Pvt. Ltd, Bengaluru) ad libitum. Reverse osmosis water treated with ultraviolet light was provided ad libitum.
Twenty one male Sprague Dawley rats were intraperitoneally administered with a solution formulation of the compound of Example 2 prepared in 10% DMSO, 10% Tween 80, and 80% normal saline. The blood samples were collected from a set of three rats at each time point in labeled micro centrifuge tube containing K2EDTA solution as anticoagulant. Plasma samples were separated by centrifugation of whole blood and stored at below −70° C. until bioanalysis. After collection of blood samples at each time point animals, were humanely euthanized by CO2 and the brain was collected. Brain samples were homogenized using ice-cold phosphate buffer saline (pH=7.4) and homogenates were stored at below −70° C. until analysis. Total homogenate volume was three times the brain weight. All samples were processed for analysis by protein precipitation using acetonitrile and analyzed with fit-for-purpose LC-MS/MS method (Lower Limits of Quantitation (LLOQ)=2.01 ng/mL in plasma and 1.01 ng/mL in brain). Pharmacokinetic parameters were calculated using the non-compartmental analysis tool of Phoenix WinNonlin® (Version 6.3).
The intraperitoneal solution formulation concentration was 0.1 mg/mL. The weighed quantity (7.02 mg) of (E)-3-(4-((((3r,5r,7r)-adamantan-1-ylmethyl)(methyl)amino)methyl)phenyl)-N-(2-aminophenyl)acrylamide was added in a labeled bottle. DMSO (7.02 mL) was added to dissolve the compound, followed by addition of Tween 80 (7.02 mL) and the solution was mixed by vortexing. Next, normal saline was added (56.16 mL) and the resulting solution was mixed by vortexing. The solution formulation was sonicated for 2 minutes to obtain a clear and transparent solution.
The blood samples were collected from set of three rats at each time point in labeled micro centrifuge tube containing K2EDTA solution as anticoagulant at time points of 0.08, 0.5, 1, 2, 4, 6, 8 & 24 hours. […]
Concentrations of the compound of Example 2 in rat plasma and brain samples were analyzed with fit-for-purpose by LC-MS/MS method. […] Following centrifugation, 100 µL of clear supernatant was transferred a 96-well plate and analyzed using LC-MS/MS. […]

For `CN(Cc1ccc(/C=C/C(=O)Nc2ccccc2N)cc1)CC12CC3CC(CC(C3)C1)C2` [Example 2, (E)-3-(4-((((3r,5r,7r)-adamantan-1-ylmethyl)(methyl)amino)methyl)phenyl)-N-(2-aminophenyl)acrylamide], the Kp (male, Sprague Dawley, rat, brain/plasma, ip, read-out: Brain-to-plasma exposure ratio) was 20.6, the Tmax (male, Sprague Dawley, rat, plasma, ip) was 30 min and the “brain concentrations quantifiable up to” value (brain (2 animals), LLOQ 1.01 ng/mL) was ≤ 24 h. For the same compound, the “plasma concentrations quantifiable up to” value (plasma (2 animals), LLOQ 2.01 ng/mL) was “up to 8 h”.
